Test system: red blood cell
Assay: red blood cell (RBC) lysis assay
Source text: The degradation products were obtained by dissolving polyacetal 22 in phosphate buffered saline (PBS), adjusting the pH to 1–2 by the addition of HCl to allow the polyacetal to degrade, then adding a small amount of NaOH to readjust the pH to 7.4.

red blood cell (RBC) lysis: did not display RBC lysis
Substance: Dextran
